Data on six compounds can be found in US20250122207A1, “AP2 ASSOCIATED KINASE 1 INHIBITORS AND USES THEREOF” (Satellos Bioscience Inc., priority 2023, published 2025).

In one assay the target is AAK1 (Homo sapiens, UniProt Q2M2I8). The assay can be described thus: pAP2M1 cell-based assay (in-cell Western). The following applies: Hela cells co-transfected with AP2M1 and AAK1, 3 hr treatment; class symbols; read-out: AAK1 In-cell Western: IC50. An excerpt: pAP2M1 Cell-Based Assay (in-Cell Western):
The plate was read on Licor Odyssey CLx imaging system (LICOR) to acquire fluorescence intensity at 700 channel and 800 channel.
Data analysis: Fluorescence intensity at 700 channel served as internal standard and 800 channel were normalized with 700 channel.

The target of assay [1] is T1, BIKE (amino acids S38-E345) (K320A, K321A) (Homo sapiens, UniProt Q9NSY1, K320A/K321A).
T1 construct: against BIKE (amino acids S38-E345) (K320A, K321A); 6His (N, cleaved yes)
T1 sequence (Q9NSY1 38-345 K320A/K321A): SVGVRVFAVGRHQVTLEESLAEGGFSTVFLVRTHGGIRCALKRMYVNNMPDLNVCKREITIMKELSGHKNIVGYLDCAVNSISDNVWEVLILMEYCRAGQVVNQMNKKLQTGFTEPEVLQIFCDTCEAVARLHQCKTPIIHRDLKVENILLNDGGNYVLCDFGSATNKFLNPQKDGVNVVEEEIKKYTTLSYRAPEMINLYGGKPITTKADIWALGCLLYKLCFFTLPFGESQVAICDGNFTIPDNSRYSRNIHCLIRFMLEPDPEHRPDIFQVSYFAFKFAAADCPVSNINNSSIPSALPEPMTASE
The assay can be described thus: BIKE pSENs assay. Type of assay: biochemical. The following applies: class symbols; read-out: BIKE pSENs: IC50. Summed up: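 E. coli-expressed, biotinylated, tag-free BIKE at 20 nM in HEPES pH 7.5 buffer with 10 mM MgCl2 preincubated with compound 15 min at 25° C. Reaction started with 30 uM AQT0759 sensor peptide and 40 uM ATP (concentrations before 1:1 mixing).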

Assay [2] concerns the target T2, AAK1 (amino acids T27-A365) (Homo sapiens, UniProt Q2M2I8).
T2 construct: against AAK1 (amino acids T27-A365); 6His (N, cleaved yes)
Kind of assay: AAK1 pSENs assay. Type of assay: biochemical. Conditions: class symbols; read-out: AAK1 pSENs: EIC50. Put shortly: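 Biotinylated, tag-free AAK1 T27-A365 expressed in E. coli was held at 20 nM in enzyme solution (HEPES pH 7.5, 10 mM MgCl2, DTT, EGTA, Brij35, BSA) and preincubated with compound for 15 min at 25 °C. The reaction was started with an equal volume of substrate solution containing 30 uM AQT0759 peptide and 70 uM ATP. IC50 determined.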

In assay [3] the target is T3, GAK (amino acids Q25-N335) (Homo sapiens, UniProt O14976).
T3 construct: against GAK (amino acids Q25-N335); 6His (N, cleaved yes)
T3 sequence (O14976 25-335): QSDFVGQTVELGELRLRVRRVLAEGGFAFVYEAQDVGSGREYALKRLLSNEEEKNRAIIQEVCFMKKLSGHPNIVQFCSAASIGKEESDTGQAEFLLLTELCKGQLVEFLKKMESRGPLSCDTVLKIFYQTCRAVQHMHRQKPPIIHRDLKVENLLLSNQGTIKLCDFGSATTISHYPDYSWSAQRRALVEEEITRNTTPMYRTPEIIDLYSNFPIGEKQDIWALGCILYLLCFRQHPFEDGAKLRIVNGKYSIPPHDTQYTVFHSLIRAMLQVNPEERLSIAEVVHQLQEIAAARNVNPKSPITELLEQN
The assay can be described thus: GAK pSENs assay. Conditions: class symbols; read-out: GAK pSENs:IC50. Type of assay: biochemical. The method, then:
The recombinant proteins were independently expressed in Escherichia coli BL21(DE3) cells cultured in Luria-Bertani (LB) medium until OD600 reached 0.6-0.8, then cooled to 15° C. and supplemented with 0.5 mM isopropyl 1-thio-D-galactopyranoside (IPTG) induce protein expression 16 h. Cells were harvested and resuspended in lysis buffer (50 mM HEPES pH 7.5, 500 mM NaCl, 5 mM imidazole, 5% glycerol, 0.5 mM Tris (2-carboxyethyl) phosphine (TCEP), cOmplete Protease Inhibitor Tablet (Roche)) and lysed by microfludics high pressure homogenizer (UH-06, Union-Biotech). Proteins were purified using […] chromatography (His FF column, Bestchrom) and eluted stepwise in binding buffer with 20-300 mM imidazole. Removal of the hexahistidine tag was performed at 4° C. overnight using recombinant TEV protease and reacted with BirA to obtain the corresponding biotinylated-AAK1, BIKE or GAK proteins. Further separated in the reverse Strep column (Strep-Tactin® XT, IBA). The Biotin elution sample was collected containing untagged biotinylated protein was then purified by Ion-exchange chromatography (Mono Q 10/100 GL, Cytiva) and Size-exclusion chromatography (HiLoad 16/600 Superdex 200 pg, Cytiva). The pure protein was stored in a storage buffer 50 mM HEPES (pH 7.5), 300 mM NaCl, 5% glycerol at −80° C. Protein were characterized by SDS-PAGE, LC-MS and aSEC.
This example describes one illustrative method for determining the IC50 of the compounds of the present invention against GAK (amino acids Q25-N335).

Chain of AAK1 (Q2M2I8 whole entry): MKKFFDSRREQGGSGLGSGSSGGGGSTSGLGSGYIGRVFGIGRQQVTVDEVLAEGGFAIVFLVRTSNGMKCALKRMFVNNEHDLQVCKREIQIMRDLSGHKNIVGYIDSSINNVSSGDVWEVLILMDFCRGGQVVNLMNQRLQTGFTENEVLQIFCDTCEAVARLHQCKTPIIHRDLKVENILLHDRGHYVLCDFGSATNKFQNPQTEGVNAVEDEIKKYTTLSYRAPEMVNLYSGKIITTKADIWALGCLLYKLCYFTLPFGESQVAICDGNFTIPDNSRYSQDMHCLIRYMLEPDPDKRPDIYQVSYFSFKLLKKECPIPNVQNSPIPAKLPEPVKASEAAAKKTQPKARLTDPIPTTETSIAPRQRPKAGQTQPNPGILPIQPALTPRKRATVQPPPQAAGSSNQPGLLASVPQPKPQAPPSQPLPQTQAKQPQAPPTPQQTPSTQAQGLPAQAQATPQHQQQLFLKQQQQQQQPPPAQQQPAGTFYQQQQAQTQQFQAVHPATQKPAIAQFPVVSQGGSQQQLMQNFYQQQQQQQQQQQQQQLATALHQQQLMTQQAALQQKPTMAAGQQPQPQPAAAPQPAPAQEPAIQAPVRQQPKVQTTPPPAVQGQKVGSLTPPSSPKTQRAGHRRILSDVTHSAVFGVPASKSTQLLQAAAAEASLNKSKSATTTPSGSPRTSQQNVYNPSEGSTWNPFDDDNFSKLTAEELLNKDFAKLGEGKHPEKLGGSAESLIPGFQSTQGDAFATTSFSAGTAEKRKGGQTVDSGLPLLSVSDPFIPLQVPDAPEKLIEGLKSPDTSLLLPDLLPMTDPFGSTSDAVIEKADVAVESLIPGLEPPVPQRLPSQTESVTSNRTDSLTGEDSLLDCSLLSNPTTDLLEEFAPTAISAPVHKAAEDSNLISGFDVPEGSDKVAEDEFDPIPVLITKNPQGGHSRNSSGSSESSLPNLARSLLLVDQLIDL
T2 sequence (Q2M2I8 27-365): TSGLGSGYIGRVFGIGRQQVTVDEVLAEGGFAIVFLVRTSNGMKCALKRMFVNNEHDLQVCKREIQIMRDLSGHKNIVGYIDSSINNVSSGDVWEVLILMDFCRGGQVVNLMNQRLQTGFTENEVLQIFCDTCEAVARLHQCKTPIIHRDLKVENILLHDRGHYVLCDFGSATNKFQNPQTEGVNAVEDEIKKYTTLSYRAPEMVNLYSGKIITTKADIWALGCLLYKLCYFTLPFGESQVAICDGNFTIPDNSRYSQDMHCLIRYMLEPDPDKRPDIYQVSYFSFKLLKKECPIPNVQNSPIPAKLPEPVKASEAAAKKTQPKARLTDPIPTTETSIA

Take `CC(C)Oc1ncccc1-c1cnn2ccc(N3CCN(C(=O)O[C@]4(C)CCNC4)CC3)nc12` [Compound I-22, [(3R)-3-methylpyrrolidin-3-yl]4-[3-(2-isopropoxy-3-pyridyl)pyrazolo[1,5-a]pyrimidin-5-yl]piperazine-1-carboxylate]: the IC50 on AAK1 lay within 51 to 150 nM; in assay [1], 51 to 150 nM; in assay [2], 1 to 50 nM; in assay [3] it was 51 to 150 nM.

As to `CN(CCNc1ccn2ncc(-c3cccnc3OC3CC3)c2n1)C(=O)O[C@]1(C)CCNC1` [Compound I-61, (R)-3-methylpyrrolidin-3-yl (2-((3-(2-cyclopropoxypyridin-3-yl)pyrazolo[1,5-a]pyrimidin-5-yl)amino)ethyl)(methyl)carbamate], the IC50 at AAK1 is 501 to 1500 nM; in assay [1], 51 to 150 nM; in assay [2] it was 1 to 50 nM; in assay [3], 151 to 500 nM.

Turning to `O=C1C[C@H](OC(=O)N2CCN(c3ccn4ncc(-c5cccnc5NC5CC5)c4n3)CC2)CN1` [Compound I-45, [(3S)-5-Oxopyrrolidin-3-yl]4-[3-[2-(cyclopropylamino)-3-pyridyl]pyrazolo[1,5-a]pyrimidin-5-yl]piperazine-1-carboxylate], the IC50 (on AAK1; in assay [1]; in assay [2]; in assay [3]) was above 1500 nM each time.

Take `COc1ncccc1-c1cnn2ccc(N3CCN(C(=O)OC4CCNC4)CC3)nc12` (stereo not drawn) [Compound I-5, Pyrrolidin-3-yl4-[3-(2-methoxy-3-pyridyl)pyrazolo[1,5-a]pyrimidin-5-yl]piperazine-1-carboxylate]: the IC50 on AAK1 lay within 151 to 500 nM; in assay [1] it was 1 to 50 nM; in assay [2], 1 to 50 nM; in assay [3], 501 to 1500 nM.

For the compound `CN1C[C@@H](OC(=O)N2CCN(c3ccn4ncc(-c5cc(OC(F)(F)F)cnc5OC5CC5)c4n3)CC2)CC1=O` [Compound I-88], the IC50 is above 1500 nM on AAK1, 151 to 500 nM in assay [1], 1 to 50 nM in assay [2] and 501 to 1500 nM in assay [3].

Regarding `O=C1C[C@H](OC(=O)N2CCN(c3ccn4ncc(-c5cccnc5OC5CC5)c4n3)CC2)CN1CCOCc1ccccc1` [Compound I-37, [(3S)-1-(2-benzyloxyethyl)-5-oxo-pyrrolidin-3-yl]-4-[3-[2-(cyclopropoxy)-3-pyridyl]pyrazolo[1,5-a]pyrimidin-5-yl]piperazine-1-carboxylate], the IC50 lay within 501 to 1500 nM on AAK1, 501 to 1500 nM in assay [1], 1 to 50 nM in assay [2] and 501 to 1500 nM in assay [3].
